# Source: PubChem BioAssay AID2060484 (Molecular Pharmacology Branch, DTP, NCI, 2025)
# Test system: SUM149PT spheroids with HUVEC/MSC, viability
# Test: Anticancer human tumor SUM149PT cell line growth inhibition [GQUAD];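 note: spheroids exposed to drugs for seven days before readout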;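 for viability, T/C: percent viability relative to DMSO vehicle control taken as 100%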
# Conditions: for IC50: curve of first compound; for viability, T/C: stronger effect = lower value
# Description: DNA G-quadruplex Stabilizer Agents in Combinations in Complex Spheroids
# A high-throughput screen of multi-cell type tumor spheroids was designed to identify active combinations of DNA G-quadruplex stabilizer agents and targeted small molecules. Complex spheroids include a stromal component modeled by human endothelial cells (HUVEC) and fibroblasts modeled by human mesenchymal stem cells (MSCs). The concentration ranges selected for each drug and investigational agent were based upon clinically achievable concentrations if the clinical Cmax of the agent was known.
# Compounds. The drugs and investigational agents: pidnarulex (CX-5461; NSC782164), APTO-253 (NSC789042), BRACO-19 (NSC847499), peposertib (NSC802822), ceralasertib (NSC780249), elimusertib (NSC800525), camonsertib (NSC841442), AZD-1390 (NSC803789), olaparib (NSC753686), talazoparib (NSC767125), ART-558 (NSC835418), sotorasib (NSC818433), MRTX-1133 (NSC836407), SN-38 (NSC673596), topotecan (NSC609699), etoposide (NSC141540), doxorubicin (NSC123127), gemcitabine (NSC613327), 5-fluorouracil (NSC19893), paclitaxel (NSC125973), vemurafenib (NSC761431), panobinostat (NSC761190), R-306465 (JNJ-16241199; NSC773264), adavosertib (NSC754352), TP-3654 (NSC805149), carboplatin (NSC241240), KSQ-4279 (NSC840948), and staurosporine (NSC755774) were obtained from the National Cancer Institute (NCI) Developmental Therapeutics Program Chemical Repository (34). The FDA-approved anticancer drug set is available from the NCI Developmental Therapeutics Program. […] The stock solutions were prepared in dimethyl sulfoxide (DMSO, Sigma-Aldrich, St. Louis, MO, cat. D2650) at 800-fold the tested concentration and stored at -70 degrees C prior to their use. All drugs and investigational agents were tested over a range starting from a high concentration at or near the clinical Cmax and decreasing in half-log increments. If the clinical Cmax for an agent had not been determined, the highest concentration tested was 10 microM.
# 2.3 Cell Culture. All cells were maintained in an incubator at 37 degrees C and 5% CO2 with 95% humidity. The PDC lines were cultured according to standard operating procedures established by the NCI PDMR. All PDCs were thawed and cultured in Matrigel-coated flasks prepared with a working solution of 1X Ham's F-12 nutrient mix, without supplementation (Invitrogen, cat. 11765054), 100 U/mL penicillin-streptomycin (Invitrogen, cat. 15140122), and 2.5% Matrigel (Corning Inc., cat. 354248) for the first three passages. The 857933-349-R-J2-PDC line was cultured in 6C/Colon 1B media, which includes advanced DMEM/F-12 (Thermo Fisher Scientific, cat. 12634028), 10 mM HEPES (Thermo Fisher Scientific, cat. 15630080), 1X GlutaMAX supplement (Thermo Fisher Scientific, cat. 35050061), 0.1 mg/mL primocin (InvivoGen, cat. ant-pm-2), 10% defined fetal bovine serum, heat inactivated (HyClone Laboratories Inc., cat. SH30070.03HI), 50% L-WRN conditioned media (ATCC, cat. CRL-3276), 1.25 mM N-Acetyl-L-cysteine (Sigma-Aldrich, cat. A9165), 10 mM nicotinamide (Sigma-Aldrich, cat. N0636), 1X B-27 supplement (Thermo Fisher Scientific, cat. 17504044), 1X N-2 supplement (Thermo Fisher Scientific, cat. 17502048), 10 microM Y-27632 dihydrochloride (Tocris Bioscience, cat. 1254), and 50 ng/mL human EGF recombinant protein (Thermo Fisher Scientific, cat. PHG0311). The 485176-168-R4-J1-PDC line was cultured in Panc media, which includes all 6C/Colon 1B media components plus 100 ng/mL human FGF-10 (Thermo Fisher Scientific, cat. 100-26), 500 nM SB-431542 (Selleckchem, cat. S1067), and gastrin (Tocris, cat. 3006).
# […]
# [1] = second compound 0.0316 µM, first compound 0.0316 µM
# [2] = second compound 0.0316 µM, first compound 0.1 µM
# [3] = second compound 0.0316 µM, first compound 0.316 µM
# [4] = second compound 0.0316 µM, first compound 1 µM
# [5] = second compound 0.0316 µM, first compound 3.16 µM
# [6] = second compound 0.0316 µM, first compound 10 µM
# [7] = second compound 0.1 µM, first compound 0.0316 µM
# [8] = second compound 0.1 µM, first compound 0.1 µM
# [9] = second compound 0.1 µM, first compound 0.316 µM
# [10] = second compound 0.1 µM, first compound 1 µM
# [11] = second compound 0.1 µM, first compound 3.16 µM
# [12] = second compound 0.1 µM, first compound 10 µM
# [13] = second compound 0.316 µM, first compound 0.0316 µM
# [14] = second compound 0.316 µM, first compound 0.1 µM
# [15] = second compound 0.316 µM, first compound 0.316 µM
# [16] = second compound 0.316 µM, first compound 1 µM
# [17] = second compound 0.316 µM, first compound 3.16 µM
# [18] = second compound 0.316 µM, first compound 10 µM
# [19] = second compound 1 µM, first compound 0.0316 µM
# [20] = second compound 1 µM, first compound 0.1 µM
# [21] = second compound 1 µM, first compound 0.316 µM
# [22] = second compound 1 µM, first compound 1 µM
# [23] = second compound 1 µM, first compound 3.16 µM
# [24] = second compound 1 µM, first compound 10 µM
# [25] = second compound 3.16 µM, first compound 0.0316 µM
# [26] = second compound 3.16 µM, first compound 0.1 µM
# [27] = second compound 3.16 µM, first compound 0.316 µM
# [28] = second compound 3.16 µM, first compound 1 µM
# [29] = second compound 3.16 µM, first compound 3.16 µM
# [30] = second compound 3.16 µM, first compound 10 µM
# [31] = second compound 10 µM, first compound 0.0316 µM
# [32] = second compound 10 µM, first compound 0.1 µM
# [33] = second compound 10 µM, first compound 0.316 µM
# [34] = second compound 10 µM, first compound 1 µM
# [35] = second compound 10 µM, first compound 3.16 µM
# [36] = second compound 10 µM, first compound 10 µM
smiles,measurement,setting,value
C=CCn1c(=O)c2cnc(Nc3ccc(N4CCN(C)CC4)cc3)nc2n1-c1cccc(C(C)(C)O)n1 + Cc1[nH]c2ccc(F)cc2c1-c1nc2c3cccnc3c3ncccc3c2[nH]1,IC50,second compound 0.0316 µM,188 nM
same,IC50,second compound 0.1 µM,192 nM
same,IC50,second compound 0.316 µM,191 nM
same,IC50,second compound 1 µM,181 nM
same,IC50,second compound 3.16 µM,174 nM
same,IC50,second compound 10 µM,189 nM
same,"viability, T/C",[1],98.9%
same,"viability, T/C",[2],67%
same,"viability, T/C",[3],34.8%
same,"viability, T/C",[4],21%
same,"viability, T/C",[5],10.4%
same,"viability, T/C",[6],7.37%
same,"viability, T/C",[7],91.1%
same,"viability, T/C",[8],73.5%
same,"viability, T/C",[9],30.3%
same,"viability, T/C",[10],21.4%
same,"viability, T/C",[11],11.7%
same,"viability, T/C",[12],7.7%
same,"viability, T/C",[13],94.7%
same,"viability, T/C",[14],72.5%
same,"viability, T/C",[15],31.1%
same,"viability, T/C",[16],21.9%
same,"viability, T/C",[17],10.5%
same,"viability, T/C",[18],11.6%
same,"viability, T/C",[19],85.8%
same,"viability, T/C",[20],66.1%
same,"viability, T/C",[21],33.2%
same,"viability, T/C",[22],22.6%
same,"viability, T/C",[23],9.91%
same,"viability, T/C",[24],9.92%
same,"viability, T/C",[25],84.2%
same,"viability, T/C",[26],66.6%
same,"viability, T/C",[27],31%
same,"viability, T/C",[28],20.3%
same,"viability, T/C",[29],9.05%
same,"viability, T/C",[30],8.88%
same,"viability, T/C",[31],88.7%
same,"viability, T/C",[32],66.6%
same,"viability, T/C",[33],35.9%
same,"viability, T/C",[34],20.1%
same,"viability, T/C",[35],10.6%
same,"viability, T/C",[36],9.87%
COc1cccc2c1C(=O)c1c(O)c3c(c(O)c1C2=O)CC(O)(C(=O)CO)CC3OC1CC(N)C(O)C(C)O1 (centres undefined) + CN(C)c1ccc(Nc2c3ccc(NC(=O)CCN4CCCC4)cc3nc3cc(NC(=O)CCN4CCCC4)ccc23)cc1,IC50,second compound 0.0316 µM,279 nM
same,IC50,second compound 0.1 µM,260 nM
same,IC50,second compound 0.316 µM,273 nM
same,IC50,second compound 1 µM,159 nM
same,IC50,second compound 3.16 µM,240 nM
same,IC50,second compound 10 µM,217 nM
same,"viability, T/C",[1],102%
same,"viability, T/C",[2],67.8%
same,"viability, T/C",[3],52.5%
same,"viability, T/C",[4],27.3%
same,"viability, T/C",[5],5.04%
same,"viability, T/C",[6],1.9%
same,"viability, T/C",[7],97.9%
same,"viability, T/C",[8],67.9%
same,"viability, T/C",[9],48.2%
same,"viability, T/C",[10],27.4%
same,"viability, T/C",[11],2.62%
same,"viability, T/C",[12],0.68%
same,"viability, T/C",[13],79.5%
same,"viability, T/C",[14],67.5%
same,"viability, T/C",[15],46.9%
same,"viability, T/C",[16],25.2%
same,"viability, T/C",[17],2.96%
same,"viability, T/C",[18],1.86%
same,"viability, T/C",[19],73.5%
same,"viability, T/C",[20],53.2%
same,"viability, T/C",[21],42.5%
same,"viability, T/C",[22],23.4%
same,"viability, T/C",[23],3.28%
same,"viability, T/C",[24],1.27%
same,"viability, T/C",[25],71%
same,"viability, T/C",[26],58.4%
same,"viability, T/C",[27],48.1%
same,"viability, T/C",[28],24.1%
same,"viability, T/C",[29],4.84%
same,"viability, T/C",[30],2.15%
same,"viability, T/C",[31],78.9%
same,"viability, T/C",[32],59.2%
same,"viability, T/C",[33],45.6%
same,"viability, T/C",[34],28.1%
same,"viability, T/C",[35],4%
same,"viability, T/C",[36],2.22%
